Results published in patent publication US6660837B1, “Modified protein derived from protein kinase N” (Kirin Beer Kabushiki Kaisha, priority 1995, dated 2003).

Tested on: head-rod domain of vimentin
Assay: Yeast two-hybrid, PKN N-terminal region with vimentin
Type: binding
Details: data not shown
From the text: Specificity of the interaction between PKN and various NFs was investigated by measuring the ability of the two-hybrid constructs, pBTM116(Vojtek, A. B. et al., Cell, 74, 205-214 (1993)) (instead of pGBT9)-PKN and pVP16 (Vojtek, A. B. et al., Cell, 74, 205-214 (1993)) (instead of pGAD10)-NF or in reverse, to support lacZ expression in L40 cells.
To determine whether N-terminal region of PKN binds to NFM or NFH as well as NFL, corresponding region to the head-rod domain of NFM or NFH was ligated to pVP16 and lacZ expression was measured in two-hybrid system. The N-terminal region of PKN bound to each head-rod domain of NF subunit (FIG. 11(B)), and also interacted with the corresponding head-rod domain of vimentin, a ubiquitously expressed member of intermediate filament, in two-hybrid system (data not shown).

N-terminal region of PKN: N-terminal regulatory region of human PKN: 1-540 (PKNN1) in two-hybrid and GST fusions, 1-474 when in vitro translated
interaction with head-rod domain of vimentin in two-hybrid system: interacted
